Blank lines part the entries; values can stand above or below the compound they belong to. Square brackets hold non-standard residues; d marks the D form. Ends that are not written are not given here. Peptide text beside a SMILES is read from it.
What was measured:
[1] = test system: H4 cell lines (GL-H4) expressing GFP-linked LC3; test: Analysis of autophagic flow blocked by bafilomycin A-1 (LC3-GFP spots); type: cell-based; details: peptide 20 μM with Baf A1 100 nM, GL-H4 cells; FIGS. 2E and 2F
Protocol: FIGS. 2A to 2C are series of fluorescence micrographs of LC3-GFP spots 12 h after treating H4 cell line (GL-H4) that stably overexpresses GFP-LC3 protein with various variant alloferon peptides according to one embodiment of the present invention in combination with bafilomycin at a concentration of 20 μM, showing that autophagic flux blocked by bafilomycin A-1 is restored by the variant alloferon peptides according to one embodiment of the present invention. FIGS. 2D to 2F are graphs showing quantification of the fluorescence intensity of LC3-GFP spots 12 h after treatment of the GL-H4 cell line with the variant alloferon peptides according to one embodiment of the present invention in combination with bafilomycin at a concentration of 20 μM.
H4 cell line (GL-H4) and HEK293T cell line permanently transfected with GFP-LC3 plasmid were used in the present invention. The cell culture medium was Minimum Essential Medium (MEM, WellGene) supplemented with 10% fetal bovine serum (Hyclone, USA) and antibiotic and antifungal mixture (WellGene, Korea) and cultured in a cell culture machine at 37° C. and 5% CO2.
To investigate the effect of peptides comprising the amino acid sequences designated as SEQ ID NO: 3 to 16 on autophagic flow, the present inventors treated H4 cell lines (GL-H4) expressing GFP-linked LC3 with the peptides (20 μM) and/or the autophagic inhibitor Bafilomycin A-1 (Baf A1, 100 nM) to inhibit autophagy, and then the effect of the variant alloferon peptides according to one embodiment of the present invention was investigated by fluorescence microscopy analysis.

[2] = In vitro plasma stability assay; type: in vitro ADME, ICR mice; details: 10 μM peptide, 37° C.; for stability in plasma over time: mouse plasma, 0 to 90 min, LC-MS
Protocol: FIG. 1 is a graph showing the results of measuring quantitative changes of alloferon L-type and alloferon D-type peptides by mass spectrometry to investigate their degradation in plasma from mice, where 10 µM of each alloferon peptide was treated in isolated plasma and were incubated at 37° C. for 0, 10, 30, 60, and 90 min.
As the present inventors believed that the mechanism of action of alloferon peptides is through endocytosis via multi-ligand receptors rather than physiological activity and that zinc-binding capacity is an important mechanism, they investigated the blood stability of the D-type alloferon of Example 1-2 in which all amino acids except glycine have been replaced with D-type amino acids and the L-type alloferon of Example 1-1. An in vitro plasma stability assay was performed to compare the stability of the L-type peptide and the D-type peptide of alloferon in the plasma of mice. For this purpose, 500 to 600 μl of blood was obtained from ICR mice by orbital blood sampling, which was subsequently centrifuged at 2000×g for 20 min at 4° C. using a centrifuge, and the supernatant was collected to obtain plasma. After adding 10 μM of the alloferon L-type and D-type peptides to 100 μl of the plasma, the plasma was incubated at 37° C. for 0, 5, 10, 30, 60, and 90 min. Then, 500 μl of cold methanol was added to precipitate the protein, and the protein was lyophilized and subjected to liquid chromatography and protein mass spectrometry.

[3] = test system: EGFP-SOD1 G93A aggregates in HEK293T cell line; test: SOD1 protein aggregates after SOD1 overexpression, Western blot; type: cell-based; details: peptide with 100 nM bafilomycin, 18 h, HEK293T; FIG. 3B
Protocol: FIG. 3A is a result of Western blot analysis of the level of SOD1 protein expression in protein samples obtained 18 h after treatment of HEK293T cells transfected to express SOD1 with 100 nM bafilomycin A1 alone or in combination with 30 μM of some variant alloferon peptides according to one embodiment of the present invention, for investigating the degradation of SOD1 protein aggregates by treatment with some variant alloferon peptides (DALS1, DAL-VS_V(−Q), DAL1, and DALV2) according to one embodiment of the present invention. FIG. 3B is a graph representing the results of quantifying relative expression of the SOD1 protein. In FIG. 3B, * indicates a significant difference compared to the treatment with bafilomycin alone (* p<0.05).
(§1) The present inventors then investigated whether some of the variant peptides (DALS1, DALVS_V, DAL1, DALV2) comprising the amino acid sequences designated as SEQ ID NO: 3 through 16 could resolve SOD1 aggregates that formed after transient transfection of SOD1 protein into the 293T cell line. To this end, EGFP-SOD1 G93A DNA was transiently transfected into the HEK293T cell line using Lipofectamine 2000. After transfection, the cell lines were incubated in a cell culture machine at 37° C. and 5% CO2 for 30 h, and the culture medium was replaced with Minimum Essential Medium (MEM, Gibco, USA). Subsequently, the cells were pretreated with 100 nM bafilomycin for 30 min, which were then treated with μM variant alloferon peptide and incubated for 18 h. After that, proteinase inhibitors and phosphatase inhibitors (2 μg/ml aprotinin, 2 μg/ml leupeptin, 1 μg/ml pepstatin A, 1 mM phenyl-methylsulfonyl fluoride (PMSF), 1 mM Na3 VO4, 5 mM NaF and 10 mM Na4P2O7) were put into a 6-well culture dish at 200 μl per well to lyse the cells. The obtained cell lysate was first left at 30 min for 4° C. Then, it was subjected to protein quantification using BCA protein assay kit (Pierce Biotechnology, USA), and centrifuged at 17,000×g for 20 min, where the supernant was discarded and only the cell debris was taken to obtain protein. Subsequently, 5× sample buffer (300 mM Tris, pH 6.8, 10% SDS, 50% Glycerol, 0.1% BPB, 2.5% Mercaptoethanol, 100 mM DTT) was mixed with the quantified sample, denatured at 95° C. for 5 min, and prepared for analysis. Then, electrophoresis was performed using 8% to 15% SDS-polyacrylamide gel, and the proteins separated by their sizes were transferred to polyvinylidene difluoride (PVDF) membranes (Millipore, USA). The protein-transferred membranes were then blocked with 3% skim milk powder in TBST for 1 h. […] Protein signals were detected using enhanced chemiluminescence (INTRON Biotechnology, South Korea) and a bio-imaging system (MF-Chemibis, Shimadzu Scientific Korea Corporation, South Korea).

[4] = test system: GFP-mHttQ74 aggregates in HEK293T cell line; test: Mutant huntingtin protein aggregates after overexpression, Western blot; type: cell-based; details: peptide 30 μM with 100 nM bafilomycin A1, 18 h, HEK293T; FIG. 6
Protocol: (§2) FIG. 6 is a result of Western blot analysis of the level of mutant huntingtin protein expression in protein samples obtained 18 h after treatment of HEK293T cells transfected to express mutant huntingtin protein with 100 nM bafilomycin A1 alone or in combination with 30 μM of some variant alloferon peptides according to one embodiment of the present invention, for investigating the degradation of mutant huntingtin protein aggregates by treatment with some variant alloferon peptides (DALS1, DAL-VS_V(−Q), DAL1, and DALV2) according to one embodiment of the present invention.
as §1, with “After that, proteinase inhibitors and phosphatase inhibitors (2 μg/ml aprotinin, 2 μg/ml leupeptin, 1 μg/ml pepstatin A, 1 mM phenyl-methylsulfonyl fluoride (PMSF), 1 mM Na3 VO4, 5 mM NaF and 10 mM Na4P2O7) were put into a 6-well culture dish at 200 μl per well to lyse the cells. The obtained cell lysate was first left at 30 min for 4° C.” left out, “analysis.” for “analysis. Then, electrophoresis was performed using 8% to 15% SDS-polyacrylamide gel, and the proteins separated by their sizes were transferred to polyvinylidene difluoride (PVDF) membranes (Millipore, USA). The protein-transferred membranes were then blocked with 3% skim milk powder in TBST for 1 h.”, “Korea). […]” for “Korea).”

[5] = test system: EGFP-α-synuclein A53T aggregates in HEK293T cell line; test: α-synuclein protein aggregates after overexpression, Western blot; type: cell-based; details: peptide with 100 nM bafilomycin A1, 18 h, HEK293T; FIG. 5
Protocol: as §2, with “FIG. 5” for “FIG. 6”, “of α-synuclein” for “of mutant huntingtin”, “express α-synuclein” for “express mutant huntingtin protein”, “30 µM” for “30 μM”
as §1, with “After that, proteinase inhibitors and phosphatase inhibitors (2 μg/ml aprotinin, 2 μg/ml leupeptin, 1 μg/ml pepstatin A, 1 mM phenyl-methylsulfonyl fluoride (PMSF), 1 mM Na3 VO4, 5 mM NaF and 10 mM Na4P2O7) were put into a 6-well culture dish at 200 μl per well to lyse the cells. The obtained cell lysate was first left at 30 min for 4° C.” left out, “analysis.” for “analysis. Then, electrophoresis was performed using 8% to 15% SDS-polyacrylamide gel, and the proteins separated by their sizes were transferred to polyvinylidene difluoride (PVDF) membranes (Millipore, USA). The protein-transferred membranes were then blocked with 3% skim milk powder in TBST for 1 h.”, “Korea). […]” for “Korea).”

[6] = test system: P-Tau S214, P-Tau T205, unphosphorylated tau, p62, LC3, β-amyloid (APP); test: Western blot of aggregate-forming proteins in cortex and hippocampus; type: in vivo; details: 5×FAD mice
Source text: The present inventors conducted a western blot analysis to investigate the expression of pathogenic aggregate-forming proteins in brain tissue, such as tau protein, p62, and LC3, other than β-amyloid from the results of Experimental examples 8-2 and 8-3 above.
Specifically, cortical and hippocampal tissues were obtained from experimental animals sacrificed after the behavioral experiments, and the tissues were lysed and subjected to Western blot analysis using antibodies that specifically bind to phosphorylated tau S214 (P-Tau S214), phosphorylated tau T205 (P-Tau T205), unphosphorylated tau, p62, LC3, and β-amyloid (APP), respectively.

Compound: DALVS: variant alloferon peptide, SEQ ID NO: 3, hGVSGhGqhGvhG (capital L-type, lowercase D-type) ([dH]GVSG[dH]G[dQ][dH]G[dV][dH]G)
autophagic scavenging activity compared to D-type alloferon peptide (DAL1) [1]: superior autophagic scavenging activity

Compound: CC(C)[C@@H](NC(=O)CNC(=O)[C@H](N)Cc1c[nH]cn1)C(=O)N[C@H](CO)C(=O)NCC(=O)N[C@H](Cc1c[nH]cn1)C(=O)NCC(=O)N[C@H](CCC(N)=O)C(=O)N[C@H](Cc1c[nH]cn1)C(=O)NCC(=O)N[C@@H](C(=O)N[C@H](Cc1c[nH]cn1)C(=O)NCC(=O)O)C(C)C [DAL1] (H-[dH]G[dV][dS]G[dH]G[dQ][dH]G[dV][dH]G-OH; N-terminus and C-terminus assumed)
stability in plasma over time [2]: remained stable over time without degradation

half-life ([2]; FIG. 1, isolated mouse plasma, read-out: half-life (T1/2)): 51.8 min | stability in plasma over time [2]: degraded early in plasma
Compound: HGVSGHGQHGVHG [LAL]

Compound: DALV1: variant alloferon peptide, SEQ ID NO: 7, hGVsGhGqhGvhG (capital L-type, lowercase D-type) ([dH]GV[dS]G[dH]G[dQ][dH]G[dV][dH]G)
autophagic scavenging activity compared to D-type alloferon peptide (DAL1) [1]: superior autophagic scavenging activity

Compound: DALVS_V: variant alloferon peptide with glutamine removed, SEQ ID NO: 14, hGVSGhGhGVhG (capital L-type, lowercase D-type) ([dH]GVSG[dH]G[dH]GV[dH]G)
autophagic scavenging activity compared to D-type alloferon peptide (DAL1) [1]: superior autophagic scavenging activity | SOD1 protein aggregate dissociating ability compared to DAL1 [3]: better protein aggregate dissociating ability

Compound: DALH1: variant alloferon peptide, SEQ ID NO: 8, HGvsGhGqhGvhG (capital L-type, lowercase D-type) (HG[dV][dS]G[dH]G[dQ][dH]G[dV][dH]G)
mutant huntingtin protein aggregate dissociating ability compared to DAL1 [4]: better protein aggregate dissociating ability

Compound: DALS1: variant alloferon peptide, SEQ ID NO: 5, hGvSGhGqhGvhG (capital L-type, lowercase D-type) ([dH]G[dV]SG[dH]G[dQ][dH]G[dV][dH]G)
autophagic scavenging activity compared to D-type alloferon peptide (DAL1) [1]: superior autophagic scavenging activity | SOD1 protein aggregate dissociating ability compared to DAL1 [3]: better protein aggregate dissociating ability

Compound: DALV2: variant alloferon peptide, SEQ ID NO: 4, hGvsGhGqhGVhG (capital L-type, lowercase D-type) ([dH]G[dV][dS]G[dH]G[dQ][dH]GV[dH]G)
autophagic scavenging activity compared to D-type alloferon peptide (DAL1) [1]: superior autophagic scavenging activity | SOD1 protein aggregate dissociating ability compared to DAL1 [3]: better protein aggregate dissociating ability | α-synuclein protein aggregate dissociating ability compared to DAL-1 [5]: better protein aggregate dissociating ability | mutant huntingtin protein aggregate dissociating ability compared to DAL1 [4]: better protein aggregate dissociating ability | amount of β-amyloid ([6]; Western blot of hippocampal sections): significantly reduced | expression of aggregate-forming proteins ([6]; cortex and hippocampus, 20 mg/kg IP, 25 weeks): significantly lower expression | protein aggregate dissociating ability compared to DAL1 ([6]; cortical Western blot analysis): better protein aggregate dissociating ability

Compound: DALQ1: variant alloferon peptide, SEQ ID NO: 10, hGvsGhGQhGvhG (capital L-type, lowercase D-type) ([dH]G[dV][dS]G[dH]GQ[dH]G[dV][dH]G)
α-synuclein protein aggregate dissociating ability compared to DAL-1 [5]: better protein aggregate dissociating ability

Compound: DALVSQV
autophagic scavenging activity compared to D-type alloferon peptide (DAL1) [1]: superior autophagic scavenging activity

— patent US20260217763A1, “Novel Peptide and Use Thereof” (Zincure Corp., priority 2022, published 2026)
